Laboratory results from patent publication US6376430B1, “Enhancement of seed yield of soybeans by a substituted benzoyl urea” (Uniroyal Chemical Company, Inc., priority 1997, dated 2002).

Experiments:
[1] = system: determinate soybeans; assay: Field applications on determinate soybeans (29 site data base), seed yield; type: in vivo, soybean; conditions: for determinate soybean yields: Diflubenzuron 0.035 kg/ha, BENLATE 0.56 to 0.84 kg/ha, applied from R2 through R5 growth stages, untreated control 2190 kg/ha; for yield increase over the untreated control: one or two field applications of Diflubenzuron at 0.034 kg ai/ha, 29 sites, determinate soybeans
Text: In this invention, Diflubenzuron is typically sprayed during the period from R2 through R5 for controlling foliar feeding insects. In the States of Mississippi, Florida, Tennessee, Illinois, Arkansas, Louisiana, and Texas results have been compiled where one or two field applications of Diflubenzuron at 0.034 kg ai/ha (0.031 lb ai/acre) were applied to control insects on the determinate soybeans planted. A fungicide, Benomyl, methyl-1-(butylcarbamoyl)-2-benzamidazolecarbamate [CAS 17804-35-2], available as BENLATE™ from DuPont deNemour, Wilmington, Del., was also applied alone or in combination with Diflubenzuron for fungal pathogen control.

[2] = system: soybean; conditions: cited from earlier work
[3] = system: indeterminate soybeans; assay: Field applications on northern indeterminate soybean varieties (25 sites), seed yield, pod counts, seed size; type: in vivo
Text: Diflubenzuron alone gave a 376 kg/ha (5.6 bu/acre) increase over the untreated control; the addition of Benomyl (methyl-1-(butylcarbamoyl)-2-benzamidazolecarbamate) only conferred another 0.5 bushel increase. There were no reported foliar feeding insect infestations of significance in any of the trials.
This is a similar % increase to the increased seed yields found in Table 3. […] Thus Diflubenzuron may be more consistent than TIBA in generating soybean seed yield increases since Diflubenzuron is not visually altering the carbon fixation pool of the plant.

Structure (SMILES)	determinate soybean yields [1] [kg/ha]	yield increase over the untreated control [1] [bushels/acre]	total seed number per plant ([2]; literature (Bauer et al., 1969; Burton and Curley, 1966; Hicks et al., 1967))	seed yield ([2]; literature, smaller seeds were formed)	visual alteration of the soybean plant canopy ([3]; any research trial)	seed size variation across varieties ([3]; no correlation to application time of Diflubenzuron) [%]	pod counts from plants, higher in relation to the untreated control ([3]; preliminary results, indeterminate soybean trials)
CCCCNC(=O)n1c(NC(=O)OC)nc2ccccc21 [Benomyl, methyl-1-(butylcarbamoyl)-2-benzamidazolecarbamate]	2439	3.7	–	–	–	–	–
O=C(O)c1cc(I)cc(I)c1I [TIBA, 2,3,5-triiodobenzoic acid]	–	–	increase	no corresponding increase	–	–	–
O=C(NC(=O)c1c(F)cccc1F)Nc1ccc(Cl)cc1 [Diflubenzuron, N-(2,6-difluorobenzoyl)-N′-(4-chlorophenyl)urea]	2378	2.8	–	–	has not been noted	~2	approximately 16%
